# Results from patent US20250034171A1, “IMIDAZOPYRIDINE AMIDES AND RELATED COMPOUNDS FOR USE IN THE TREATMENT OF BACTERIAL INFECTIONS” (priority 2021, published 2025).
# Where two headings read alike, the source gives them in different places.
# Tests used:
# [1] = Metabolic stability in liver microsomes (intrinsic clearance); format: in vitro ADME
# Protocol: The test compound was incubated under the generic condition (0.5 mg/ml microsomal protein, 1 mM NADPH, 1 mM MgCl2, and 0.1 M phosphate buffer, pH 7.4, 37° C.) at a defined substrate concentration (typically 1 μM) in liver microsomes of selected species across a time course (typically 0, 5, 10, 20, 40 and 60 minutes) at Cyprotex (Cheshire, UK). The liver microsomes, buffer and test compound will be pre-incubated for 5 minutes. The addition of the co-factor NADPH will initiate the reaction and the reaction was terminated by addition of acetonitrile. The samples were centrifuged prior to analysis by LC-MS/MS analysis. The relative amount of parent compound remaining in the active incubations vs. the control incubations (t=0 mins) for each compound was measured by peak area comparison. The in vitro metabolic half-life (t1/2) was calculated using the slope of the log-linear regression from the percentage parent compound remaining versus time relationship (κ), The in vitro intrinsic clearance (Cl^int) (μl/min/mg microsomal protein) was calculated using the in vitro metabolic half-life, incubation volume and the weight of microsomal protein in the incubation.
# [2] = HTChem stab assay (chemical stability in buffer pH2, pH4 and pH7 vs DMSO reference); format: physicochemical
# Protocol: HTChem stab assay was used to assess the chemical stability of the compounds. 72 h stirring at rt in a buffer pH2, pH4 and pH7 vs a reference DMSO solution. HTChem stab assay is based on the handbook of Pharmaceutical Stress Testing, Predicting Drug Degradation, second edition, authors Baertschi, Alsante, Reed ISBN 978-143980179-6.
# Compounds were plated (1 μl 10 mM DMSO stock in 96 well plate (DMSO control+3 pH conditions), one plate per condition).
# 200 μL of respectively DMSO, Buffer/DMSO mix pH2, Buffer/DMSO mix pH4 and Buffer/DMSO mix pH7 was added.
# After 72 h shaking (300 rpm) at room temperature the samples were analysed by LC/UV/MS. Chromatograms of samples (stability conditions) were compared with the chromatograms of control sample (DMSO). Extra peaks were flagged and identified by mass spectrometry. Sample purity (reference included) were reported.
# • pH3 buffer: For 11; weigh 4.14 g NaH2PO4·H2O, add 600 ml H2O, add H3PO4 to pH3, add H2O to 1000 ml. Filter over 0.2 μm and store at 4° C. Expires after 30 days. • pH6 buffer: For 1 l; weigh 4.14 g NaH2PO4·H2O, add 600 ml H2O, add 1N NaOH to pH6, add H2O to 1000 ml. Filter over […] and store at 4° C. Expires after 30 days.
# • pH2 Buffer/DMSO (StabSolvent): mix 2 parts of HCl 0.1N with 1 part of DMSO • pH4 Buffer/DMSO (StabSolvent): mix 2 parts of buffer pH3 with 1 part of DMSO • pH7 Buffer/DMSO (StabSolvent): mix 2 parts of buffer pH6 with 1 part of DMSO measure pH prior to use.
# Instrument: Acquity UPLC; Column: Acquity HSS T3, 50 mm length×2.1 mm i.d., 1.8 μm particle size. Detectors: PDA (250-350 nm) and SQD2 (90-1500m/z). Mobile phase A: 0.1% Formic acid in water; Mobile phase B: 0.1% Formic acid in Acetonitrile.
# Injection volume: 5 μL, flow rate 0.6 mL/min.
# Data processing including peak integration and identification was done with Waters OpenLynx software.
# [3] = test system: Salmonella typhimurium Ames II Mixed Strains (TA7001-TA7006) and TA98; test: Genotoxicity assay (AmesIIb mutagenicity test); format: cell-based; also: key: an AmesIIb score of 1 shows no genotoxicity signals
# Source text: The aim is to evaluate compounds (and/or their metabolites) for their ability to induce reverse mutations in a gene of histidine-requiring Salmonella typhimurium strains to produce histidine-independent strains of these bacteria, in the absence and in the presence of a mammalian metabolic activation system.
# Point mutations were made in the histidine (His) operon in Salmonella typhimurium, rendering the bacteria incapable of producing histidine. These single base substitutions are positioned at strategic points within the His gene, resulting in his-organisms that cannot grow unless histidine is supplied. When a mutagenic event occurs, base substitutions within the His gene then cause the reversion of the his-Ames II™ strains to His.
# A chemical's mutagenic potential is assessed by exposing these his-organisms to varying concentrations of chemical and selecting for the reversion event. Medium lacking histidine is used for this selection which allows only those cells that have undergone the his- to His reversion to survive and grow.
# The assay may be performed using a kit and instructions from Xenometric. The two strains provided in the Xenometric kit are the Ames II™ Mixed Strains and TA98. The Ames II™ Mixed Strains contains an equimolar mixture of the Ames II™ TA7001-TA7006 strains. Individually, these strains are designed to revert by only one specific base-pair substitution out of six possible changes. Thus, when mixed, all six base substitution mutations can be represented in one culture. This kit also contains TA98 for the detection of frameshift mutations.
# [4] = test system: Mycobacterium tuberculosis strain H37Rv; test: Test 2: MIC determination against M. tuberculosis, resazurin fluorescence; format: cell-based; conditions: Test 2, M. tuberculosis H37Rv; for MIC90: read-out: Bacterial activity MIC90; for IC50: read-out: Bacterial activity pMIC50 (converted)
# [5] = buffer pH2/DMSO, 72 h stirring at rt
# [6] = buffer pH4/DMSO, 72 h stirring at rt
# [7] = buffer pH7/DMSO, 72 h stirring at rt
# [8] = reference DMSO solution, 72 h stirring at rt
# [9] = Mycobacterium tuberculosis, H37RV
Structure (SMILES),"Metabolic Stability (liver microsome intrinsic clearance) Clearance (mouse, μl/min./mg protein) ([1]; mouse liver microsomes) [μl/min./mg protein]","Metabolic Stability Half life (mouse, min.) ([1]; mouse liver microsomes) [h]","Chemical stability data, Buffer pH2 [2, 5] [%]","Chemical stability data, Buffer pH4 [2, 6] [%]","Chemical stability data, Buffer pH7 [2, 7] [%]","Chemical stability data, Vehicle DMSO [2, 8] [%]",GeneTox AmesIIb Score [3],Bacterial activity pMIC50 [4],MIC90 [4] [µM],GeneTox AmesIIb Score ([3]; Salmonella typhimurium),other results
CCc1nc2n(c1C(=O)NCc1ccc(-c3nc4n(n3)CCC(C(F)(F)F)C4)cc1)CCCC2 (racemic) [Compound 13ab],15.5,1.49,100,100,100,100,1,8.067,0.024,,
O=C(NCc1ccc(-c2nc3n(n2)CCC(C(F)(F)F)C3)cc1)c1c(C(F)F)nc2ccccn12 (racemic) [Compound 14ab],<7.7,>3,100,100,100,100,1,7.877,0.036,,
CCc1nc2ncccn2c1C(=O)NCc1ccc(-c2nc3n(n2)CCC(C(F)(F)F)C3)cc1 (racemic) [Compound 17ab],<7.7,>3,100,97,100,100,1,7.526,0.105,,
O=C(NCc1ccc(-c2cn3c(n2)CC(C(F)(F)F)CC3)cc1)c1c(C(F)(F)F)nc2ccccn12 (racemic) [Compound 18ab],11.1,2.08,98,100,100,98,1,7.431,0.142,,
"CCc1nc2ncc(C)cn2c1C(=O)NCc1ccc(-c2cn3c(n2)CC(C(F)(F)F)CC3)cc1 (single isomer, unassigned) [Compound 3a]",7.78,,,,,,,8.532,0.008,1,"Metabolic Stability (liver microsome intrinsic clearance) Clearance (human, μl/min./mg protein) ([1]; human liver microsomes): 13.4 μl/min./mg protein; Metabolic Stability Half life (human, min.) ([1]; human, microsomes, 1 µM, pH 7.4): 1.72 h; Metabolic Stability Half life (mouse, min.) ([1]; mouse, microsomes, 1 µM, pH 7.4): 2.97 h; Chemical stability data, Vehicle DMSO ([2]; 72 h, 50 µM): 100%; Chemical stability data, Buffer pH2 ([2]; 72 h, 50 µM, pH 2): 100%; Chemical stability data, Buffer pH4 ([2]; 72 h, 50 µM, pH 4): 100%; Chemical stability data, Buffer pH7 ([2]; 72 h, 50 µM, pH 7): 100%"
Cc1cnc2nc(C3CC3)c(C(=O)NCc3ccc(-c4nc5n(n4)CCC(C(F)(F)F)C5)cc3)n2c1 (centres unmarked) [Compound 8ab],,,,,,,,,,1,"Chemical stability data, Vehicle DMSO ([2]; 72 h, 50 µM): 100%; Chemical stability data, Buffer pH2 ([2]; 72 h, 50 µM, pH 2): 100%; Chemical stability data, Buffer pH4 ([2]; 72 h, 50 µM, pH 4): 100%; Chemical stability data, Buffer pH7 ([2]; 72 h, 50 µM, pH 7): 100%; MIC90 [4, 9]: 0.018 µM; IC50 [4, 9]: 7110 pM"
CCc1nc2cc(F)ccn2c1C(=O)NCc1ccc(-c2nc3n(n2)CCCC3)cc1 [Compound 120],,,,,,,,,,1,"half-life at 1 µM ([1]; mouse, microsomes, pH 7.4, Metabolic Stability Half life (mouse, min.)): 1.61 h; microsomal CLint at 1 µM ([1]; mouse, microsomes, pH 7.4, mouse liver microsomes, read-out: Metabolic Stability (liver microsome intrinsic clearance) Clearance (mouse, μl/min./mg protein)): 14.4 µL/min/mg; MIC90 [4, 9]: 0.042 µM; IC50 [4, 9]: 14500 pM"
